One experiment relates to A498. The experiment in a line: Cytotoxicity against human A498 cells. It counts as functional, cell-based.
The test system of a further experiment is ACHN. Put plainly: Cytotoxicity against human ACHN cells. It counts as functional, cell-based.
In experiment [1] the target is Acetylcholinesterase (Homo sapiens) (UniProt P22303). The experiment in a line: Inhibition of AChE (unknown origin) at 100 ug/ml for 15 mins by spectrophotometry.
In another experiment the test system is Bacillus subtilis. The experiment in a line: Antibacterial activity against Bacillus subtilis ATCC 6633 after 24 hrs. To be noted: ATCC 6633, 24 h. Type of experiment: functional.
The subject of experiment [2] is Staphylococcus epidermidis. Put plainly: Antibacterial activity against Staphylococcus epidermidis ATCC 12228 after 24 hrs. It counts as functional. To be noted: ATCC 12228, 24 h.

In brackets after ≈: the same amount, converted by molar mass. Activity calls are given as the source filed them. The calls are words filed in the database; no cut-off is given here.

Chain of Acetylcholinesterase (Homo sapiens) (P22303 whole entry): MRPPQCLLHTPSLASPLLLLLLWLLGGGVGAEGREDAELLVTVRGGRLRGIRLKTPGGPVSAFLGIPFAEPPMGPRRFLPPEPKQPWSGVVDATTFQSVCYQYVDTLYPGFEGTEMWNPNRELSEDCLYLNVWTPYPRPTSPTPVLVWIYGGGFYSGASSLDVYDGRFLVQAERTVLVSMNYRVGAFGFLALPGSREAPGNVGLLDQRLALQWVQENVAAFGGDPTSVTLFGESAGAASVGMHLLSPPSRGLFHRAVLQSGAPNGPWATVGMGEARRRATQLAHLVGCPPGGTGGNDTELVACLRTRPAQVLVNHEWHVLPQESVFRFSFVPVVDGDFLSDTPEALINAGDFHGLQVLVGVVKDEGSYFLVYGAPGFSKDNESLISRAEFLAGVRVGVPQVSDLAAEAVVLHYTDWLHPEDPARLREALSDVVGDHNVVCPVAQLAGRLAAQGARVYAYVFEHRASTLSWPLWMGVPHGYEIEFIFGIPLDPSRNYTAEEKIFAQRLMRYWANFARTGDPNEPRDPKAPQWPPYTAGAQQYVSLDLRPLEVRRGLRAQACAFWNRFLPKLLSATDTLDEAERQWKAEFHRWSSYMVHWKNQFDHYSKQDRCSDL

For `CCC(C)CCCCCCC(=O)c1nc[nH]c1N` (centres undefined), the result with A498 and in the experiment on ACHN was inactive. The inhibition entry in experiment [1] was “Active”. Also, 64 mg/L (≈ 255 µM) was the least that counted as inhibitory in the experiment with Bacillus subtilis (MIC).
For `CC(C)CCCCCCC(=O)c1nc[nH]c1N`, the result in the experiment with A498 and in the experiment on ACHN was inactive. For the same molecule, the inhibition result in experiment [1] was “Active”. For the same molecule, the MIC (against Bacillus subtilis; in experiment [2]) was 64 mg/L (≈ 270 µM) in each case.

Source of the values: ChEMBL document CHEMBL3739378, “Nocarimidazoles A and B from a Marine-Derived Actinomycete of the Genus Nocardiopsis” (2015).
